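The compound was tested at five concentrations on cells cultured in 96-well plates, with a 48-hour exposure period. TGI marks complete inhibition of growth.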
How the values were obtained:
Experiment in all cases: NCI tumour cell line growth inhibition, 48 h
M19-MEL melanoma = test system: M19-MEL melanoma
SNB-78 CNS = test system: SNB-78 CNS
XF 498 CNS = test system: XF 498 CNS
SR leukemia = test system: SR leukemia
OVCAR-4 ovarian = test system: OVCAR-4 ovarian
KM20L2 colon = test system: KM20L2 colon
DMS 273 small cell lung = test system: DMS 273 small cell lung
DLD-1 colon = test system: DLD-1 colon
LOX IMVI melanoma = test system: LOX IMVI melanoma
DMS 114 small cell lung = test system: DMS 114 small cell lung
EKVX NSCLC = test system: EKVX NSCLC
SNB-75 CNS = test system: SNB-75 CNS
HOP-18 NSCLC = test system: HOP-18 NSCLC
LXFL 529 NSCLC = test system: LXFL 529 NSCLC
RXF-631 renal = test system: RXF-631 renal

Row | SMILES | TGI (M19-MEL melanoma) | TGI (SNB-78 CNS) | TGI (XF 498 CNS) | TGI (SR leukemia) | TGI (OVCAR-4 ovarian) | TGI (KM20L2 colon) | TGI (DMS 273 small cell lung) | TGI (DLD-1 colon) | TGI (LOX IMVI melanoma) | TGI (DMS 114 small cell lung) | TGI (EKVX NSCLC) | TGI (SNB-75 CNS) | TGI (HOP-18 NSCLC) | TGI (LXFL 529 NSCLC) | TGI (RXF-631 renal)
1 | CC1=Nc2c([nH]c(=S)[nH]c2=O)NC(c2ccc(Cl)c(Cl)c2)C1 (stereo not drawn) | 34.2 µM | > 100 µM | > 100 µM | > 100 µM | 57.9 µM | > 62.9 µM | > 72.9 µM | > 56.7 µM | 40.3 µM | > 81 µM | > 68.3 µM | > 100 µM | > 100 µM | 37.8 µM | 
2 | Cc1nccc2c1cnc1ccnn12 | > 100 µM | > 100 µM |  | > 100 µM | > 100 µM | > 100 µM | > 100 µM | > 100 µM | > 100 µM | > 100 µM | > 100 µM | > 100 µM |  | > 100 µM | > 100 µM
3 | NC1=NC2(O)c3ccccc3C(=O)C2(O)N1 (stereo not drawn) |  | > 100 µM |  | > 100 µM | > 100 µM | > 100 µM | > 100 µM | > 100 µM | > 100 µM | > 100 µM | > 100 µM | > 100 µM | > 100 µM | > 100 µM | > 100 µM
4 | O=C1C(Cl)C(c2ccc(Cl)cc2)N1n1cnc2ccccc2c1=O (stereo not drawn) | > 100 µM | > 100 µM | > 100 µM | > 100 µM | > 100 µM | > 100 µM | > 100 µM | > 100 µM | > 100 µM | > 100 µM | 82.4 µM | > 100 µM | > 100 µM | > 100 µM | 
5 | O=C(O)c1cc(-c2ccccc2O)nc2ccccc12 | > 100 µM | > 100 µM | > 100 µM |  | > 100 µM | > 100 µM |  | > 100 µM |  | > 100 µM | > 100 µM | > 100 µM | > 100 µM | > 100 µM | 
6 | CCOC(OCC)c1ccc(/C=C/c2cc(OC)c(OC)c(OC)c2)cc1 | 37 µM | 87.9 µM |  |  | 68.1 µM | 41.8 µM | 41.3 µM | 38.8 µM | 25 µM | 50.2 µM | > 100 µM | 57.5 µM | > 100 µM | 41.7 µM | 70.7 µM
7 | COc1cccc(/C(C=O)=C(\Cl)c2ccc(OC)c(OC)c2)c1 | 23.4 µM | 37.7 µM | 31.1 µM | 82.1 µM | 39.1 µM | 44.1 µM | 27.3 µM | 25.5 µM | 28.7 µM | 30.5 µM | 33.9 µM | 21.3 µM | 27.8 µM | 24.4 µM | 
8 | O=C(/C=C/c1c(O)ccc2ccccc12)c1cccc2ccccc12 | 71.9 µM | > 100 µM | > 100 µM | > 100 µM |  | > 100 µM | > 100 µM | > 100 µM | > 100 µM | > 100 µM | > 100 µM | > 100 µM | > 100 µM | > 100 µM | 
9 | CCOC(=O)c1nc2ccc(Cl)cc2c2c1CCO2 | > 100 µM | > 100 µM | > 100 µM |  | > 100 µM | > 100 µM | > 100 µM | > 100 µM | > 100 µM | > 100 µM | > 100 µM | 88.6 µM | > 100 µM | > 100 µM | 
